The results in this text go back to PMC4767605 (Cancer chemotherapy and pharmacology, 2016).

Data set [1] has as its system breast cancer (MDA-MB-231). As to the kind of experiment: Breast cancer xenograft in mice, combination with paclitaxel. The following applies: ASP9853 in combination with paclitaxel; MDA-MB-231 xenograft; data not shown. The format is in vivo.
The subject of the next data set is prostate cancer (PC-3). As to the kind of experiment: Prostate cancer xenograft in mice, combination with paclitaxel. The format is in vivo. To be noted: ASP9853 in combination with paclitaxel; PC-3 xenograft; data not shown.
Data set [2] can be described thus: Phase I study: plasma pharmacokinetics of ASP9853 and docetaxel. The format is in vivo, human. To be noted: for Median ASP9853 Cmax / Median AUC24 for ASP9853: Cycle 1/Day 1.
Setting [3] is: Cohort 1: ASP9853 25 mg + docetaxel 60 mg/m^2.
Where [4] appears, read: Cohort 2: ASP9853 25 mg + docetaxel 75 mg/m^2.
[5] abbreviates: Cohort 3: ASP9853 37.5 mg + docetaxel 60 mg/m^2.
Setting [6] is: Cohort 4: ASP9853 50 mg + docetaxel 60 mg/m^2.

For the compound `O.O.O=C(/C=C/c1ccc(Cl)cc1)N[C@@H](Cc1ccccn1)C(=O)NCC(=O)N1CCC(Oc2cc(C(F)(F)F)ncn2)CC1` [ASP9853, (2E)-3-(4-chlorophenyl)-N-[(1S)-2-oxo-2-{[2-oxo-2-(4-{[6-(trifluoromethyl)-4-pyrimidinyl]oxy}-1-piperidinyl)ethyl]amino}-1-(2-pyridinylmethyl)ethyl]acrylamide dehydrate], the Tumor growth inhibition entry (in data set [1]; in the data set with prostate cancer (PC-3)) was “greater tumor growth inhibition” in each case. For the same compound, the “ASP9853 PK profiles in patients with versus without neutropenic DLTs” value in data set [2] (Cycle 1, Day 1, high interpatient variability) is listed as “no clear difference”. Further, the “Median ASP9853 Cmax” value in data set [2] (setting [3]) was 747 ng/mL; in data set [2] (setting [4]), 1019 ng/mL; in data set [2] (setting [5]), 2450 ng/mL; in data set [2] (setting [6]), 1490 ng/mL. In addition, the “Median AUC24 for ASP9853” value in data set [2] (setting [3]) came out at 3769 ng·h/mL; in data set [2] (setting [4]), 8839 ng·h/mL; in data set [2] (setting [5]) it was 7075 ng·h/mL; in data set [2] (setting [6]) it was 6922 ng·h/mL. For the same compound, the “ASP9853 cleared from plasma within 24 hours after administration” value in data set [2] (in vivo) is on record as “more than 95%”. Besides, in data set [2] (oral, patients with advanced solid tumors), the “Tmax of ASP9853” value fell in the range of 30 to 252 min. Besides, the “ASP9853 plasma exposure (AUC24) when administered in combination with docetaxel” value in data set [2] (sample size too small for statistical significance, data not shown) was “appeared lower”.
